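The compound was tested at five concentrations on cells cultured in 96-well plates, with a 48-hour exposure period. Here, GI50 denotes the concentration required for 50% inhibition of growth.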 Activity calls are given as the source filed them. Rule as the data show it: active = GI50 up to about 1.1 µM and inactive = higher.
What was measured:
Assay in all cases: NCI-60 cell line screen, 48 h
786-0 = tested on: 786-0
A498 = tested on: A498
A549 = tested on: A549
ACHN = tested on: ACHN
BT-549 = tested on: BT-549
CAKI-1 = tested on: CAKI-1
CCRF-CEM = tested on: CCRF-CEM
COLO 205 = tested on: COLO 205
DU-145 = tested on: DU-145
EKVX = tested on: EKVX
HCC 2998 = tested on: HCC 2998
HCT-116 = tested on: HCT-116
HCT-15 = tested on: HCT-15
HL-60 = tested on: HL-60
HOP-92 = tested on: HOP-92
HT-29 = tested on: HT-29
Hs-578T = tested on: Hs-578T
IGROV-1 = tested on: IGROV-1
K562 = tested on: K562
KM12 = tested on: KM12
LOX IMVI = tested on: LOX IMVI
M14 = tested on: M14
MCF7 = tested on: MCF7
MDA-MB-231 = tested on: MDA-MB-231
MDA-MB-435 = tested on: MDA-MB-435
MDA-N = tested on: MDA-N
MOLT-4 = tested on: MOLT-4
NCI-H226 = tested on: NCI-H226
NCI-H23 = tested on: NCI-H23
NCI-H460 = tested on: NCI-H460
NCI-H522 = tested on: NCI-H522
NCI/ADR-RES = tested on: NCI/ADR-RES
OVCAR-3 = tested on: OVCAR-3
OVCAR-4 = tested on: OVCAR-4
OVCAR-5 = tested on: OVCAR-5
OVCAR-8 = tested on: OVCAR-8
PC-3 = tested on: PC-3
RPMI-8226 = tested on: RPMI-8226
SF-268 = tested on: SF-268
SF-295 = tested on: SF-295
SF-539 = tested on: SF-539
SK-MEL-28 = tested on: SK-MEL-28
SK-MEL-2 = tested on: SK-MEL-2
SK-MEL-5 = tested on: SK-MEL-5
SK-OV-3 = tested on: SK-OV-3
SN12C = tested on: SN12C
SNB-19 = tested on: SNB-19
SNB-75 = tested on: SNB-75
SW-620 = tested on: SW-620
T47D = tested on: T47D
TK-10 = tested on: TK-10
U-251 = tested on: U-251
UACC-257 = tested on: UACC-257
UACC-62 = tested on: UACC-62
UO-31 = tested on: UO-31
HOP-62 = tested on: HOP-62
Malme-3M = tested on: Malme-3M

Cc1ccsc1C(=S)Nc1ccc(Cl)c(C(=O)OC(C(C)C)C(C)C)c1
GI50 (786-0): 19.8 µM (inactive)
GI50 (A498): 27.2 µM (inactive)
GI50 (A549): 12.2 µM (inactive)
GI50 (ACHN): 25.9 µM (inactive)
GI50 (BT-549): 3.38 µM (inactive)
GI50 (CAKI-1): 19.5 µM (inactive)
GI50 (CCRF-CEM): 5.62 µM (inactive)
GI50 (COLO 205): 12.9 µM (inactive)
GI50 (DU-145): 33 µM (inactive)
GI50 (EKVX): 23.2 µM (inactive)
GI50 (HCC 2998): 16.1 µM (inactive)
GI50 (HCT-116): 12.1 µM (inactive)
GI50 (HCT-15): 23.6 µM
GI50 (HL-60): 11.4 µM (inactive)
GI50 (HOP-92): 16.3 µM (inactive)
GI50 (HT-29): 17.4 µM (inactive)
GI50 (Hs-578T): 39.4 µM (inactive)
GI50 (IGROV-1): 32.3 µM (inactive)
GI50 (K562): 3.97 µM (inactive)
GI50 (KM12): 20 µM (inactive)
GI50 (LOX IMVI): 18 µM (inactive)
GI50 (M14): 17.9 µM (inactive)
GI50 (MCF7): 16.1 µM (inactive)
GI50 (MDA-MB-231): 17.2 µM (inactive)
GI50 (MDA-MB-435): 17.7 µM (inactive)
GI50 (MDA-N): 23.6 µM (inactive)
GI50 (MOLT-4): 5.51 µM (inactive)
GI50 (NCI-H226): 29 µM (inactive)
GI50 (NCI-H23): 13.5 µM (inactive)
GI50 (NCI-H460): 23.7 µM (inactive)
GI50 (NCI-H522): 11.4 µM (inactive)
GI50 (NCI/ADR-RES): 13.6 µM (inactive)
GI50 (OVCAR-3): 14 µM (inactive)
GI50 (OVCAR-4): 29.1 µM (inactive)
GI50 (OVCAR-5): 57.9 µM (inactive)
GI50 (OVCAR-8): 21.3 µM (inactive)
GI50 (PC-3): 8.53 µM (inactive)
GI50 (RPMI-8226): 10.6 µM (inactive)
GI50 (SF-268): 40.8 µM (inactive)
GI50 (SF-295): 21.9 µM (inactive)
GI50 (SF-539): 39.6 µM (inactive)
GI50 (SK-MEL-28): 27.1 µM (inactive)
GI50 (SK-MEL-2): 11.7 µM (inactive)
GI50 (SK-MEL-5): 15.4 µM (inactive)
GI50 (SK-OV-3): 28.2 µM (inactive)
GI50 (SN12C): 24.8 µM (inactive)
GI50 (SNB-19): 25.5 µM (inactive)
GI50 (SNB-75): 24 µM (inactive)
GI50 (SW-620): 18.9 µM (inactive)
GI50 (T47D): 6.9 µM (inactive)
GI50 (TK-10): 38.1 µM (inactive)
GI50 (U-251): 24.4 µM (inactive)
GI50 (UACC-257): 28.4 µM (inactive)
GI50 (UACC-62): 21 µM (inactive)
GI50 (UO-31): 13.1 µM (inactive)

NNS(=O)(=O)c1ccc(/C=C2\NC(=O)NC2=O)cc1
GI50 (786-0): > 100 µM (inactive)
GI50 (A498): > 100 µM (inactive)
GI50 (A549): > 100 µM (inactive)
GI50 (ACHN): > 100 µM (inactive)
GI50 (BT-549): > 100 µM (inactive)
GI50 (CAKI-1): > 100 µM (inactive)
GI50 (CCRF-CEM): > 100 µM (inactive)
GI50 (COLO 205): > 100 µM (inactive)
GI50 (DU-145): > 100 µM (inactive)
GI50 (EKVX): > 100 µM (inactive)
GI50 (HCC 2998): > 100 µM (inactive)
GI50 (HCT-116): > 100 µM (inactive)
GI50 (HCT-15): > 100 µM
GI50 (HL-60): > 100 µM (inactive)
GI50 (HOP-62): > 100 µM (inactive)
GI50 (HOP-92): > 100 µM (inactive)
GI50 (HT-29): > 100 µM (inactive)
GI50 (Hs-578T): > 100 µM (inactive)
GI50 (IGROV-1): > 100 µM (inactive)
GI50 (K562): > 100 µM (inactive)
GI50 (KM12): > 100 µM (inactive)
GI50 (LOX IMVI): > 100 µM (inactive)
GI50 (M14): > 100 µM (inactive)
GI50 (MCF7): > 100 µM (inactive)
GI50 (MDA-MB-231): > 100 µM (inactive)
GI50 (MDA-MB-435): > 100 µM (inactive)
GI50 (MDA-N): > 100 µM (inactive)
GI50 (MOLT-4): > 100 µM (inactive)
GI50 (Malme-3M): > 100 µM (inactive)
GI50 (NCI-H226): > 100 µM (inactive)
GI50 (NCI-H23): > 100 µM (inactive)
GI50 (NCI/ADR-RES): > 100 µM (inactive)
GI50 (OVCAR-3): > 100 µM (inactive)
GI50 (OVCAR-4): > 100 µM (inactive)
GI50 (OVCAR-5): 58.1 µM (inactive)
GI50 (OVCAR-8): > 100 µM (inactive)
GI50 (PC-3): > 100 µM (inactive)
GI50 (RPMI-8226): > 100 µM (inactive)
GI50 (SF-268): > 100 µM (inactive)
GI50 (SF-295): > 100 µM (inactive)
GI50 (SK-MEL-28): > 100 µM (inactive)
GI50 (SK-MEL-2): 37.9 µM (inactive)
GI50 (SK-MEL-5): > 100 µM (inactive)
GI50 (SK-OV-3): > 100 µM (inactive)
GI50 (SN12C): > 100 µM (inactive)
GI50 (SNB-19): > 100 µM (inactive)
GI50 (SNB-75): > 100 µM (inactive)
GI50 (SW-620): > 100 µM (inactive)
GI50 (T47D): > 100 µM (inactive)
GI50 (TK-10): > 100 µM (inactive)
GI50 (U-251): > 100 µM (inactive)
GI50 (UACC-257): > 100 µM (inactive)
GI50 (UACC-62): > 100 µM (inactive)
GI50 (UO-31): > 100 µM (inactive)
